Tests used:
[1] = Second oil phase obtained by adding NaCl to the water phase (Example 4); type: physicochemical; details: after separating oil phases I and II
Experimental: Cross linked polystyrene was used as adsorbent material. The volume flux for loading the adsorbent was 300 ml/min.
The adsorbent was heated to 150 °C, the temperature of the applied water steam was 160 °C.
The water steam flux was 10 g/min and was applied for 100 min.
The oil and water phases were separated.
A second oil phase was separated and was collected.

[2] = Influence of the amount of NaCl on the distribution between oil phase and water phase (Example 5); type: physicochemical

| SMILES | Loss in the water phase [1] | Distribution in [%] between oil phase and water phase after condensation: Oil phase ([2]; NaCl 0%) [%] | Distribution in [%] between oil phase and water phase after condensation: Water phase ([2]; NaCl 0%) [%] | Distribution in [%] between oil phase and water phase after condensation: Oil phase ([2]; NaCl 27.8 %) [%] | Distribution in [%] between oil phase and water phase after condensation: Water phase ([2]; NaCl 27.8 %) [%] | Distribution in [%] between oil phase and water phase after condensation: Oil phase ([2]; NaCl 41.67%) [%] | Distribution in [%] between oil phase and water phase after condensation: Water phase ([2]; NaCl 41.67%) [%] | Distribution in [%] between oil phase and water phase after condensation: Oil phase ([2]; NaCl 55.56 %) [%] | Distribution in [%] between oil phase and water phase after condensation: Water phase ([2]; NaCl 55.56 %) [%] | Distribution in [%] between oil phase and water phase after condensation: Oil phase ([2]; NaCl 69.44 %) [%] | Distribution in [%] between oil phase and water phase after condensation: Water phase ([2]; NaCl 69.44 %) [%] | Distribution in [%] between oil phase and water phase after condensation: Oil phase ([2]; NaCl 83.33 %) [%] | Distribution in [%] between oil phase and water phase after condensation: Water phase ([2]; NaCl 83.33 %) [%] |
| --- | --- | --- | --- | --- | --- | --- | --- | --- | --- | --- | --- | --- | --- |
| CCCCCC=O [hexanal] | 0,0% | 100 | 0 | 100 | 0 | 100 | 0 | 100 | 0 | 100 | 0 | 100 | 0 |
| CCCCCCO [hexanol] | 1,8% | 59.2 | 40.8 | 89.6 | 10.4 | 93.8 | 6.2 | 96.2 | 3.8 | 97.5 | 2.5 | 98.2 | 1.8 |
| CCCCCCOC(C)=O [hexyl acetate] | 0,0% | 93.4 | 6.6 | 99.4 | 0.6 | 100 | 0 | 100 | 0 | 100 | 0 | 100 | 0 |
| CCCCCCCCO [octanol] | 0,0% | 91.3 | 8.7 | 100 | 0 | 100 | 0 | 100 | 0 | 100 | 0 | 100 | 0 |
| CC(=O)OCCc1ccccc1 [phenylethyl acetate] | 0,0% | 70.8 | 29.2 | 96.9 | 3.1 | 98 | 2 | 100 | 0 | 100 | 0 | 100 | 0 |
| CCC/C=C/C=O [trans-2-hexenal] | 12,5% | 35.5 | 64.5 | 63.6 | 36.4 | 71.5 | 28.5 | 76.8 | 23.2 | 83.3 | 16.7 | 87.5 | 12.5 |

More lines, now with the values ahead:

| Loss in the water phase [1] | Distribution in [%] between oil phase and water phase after condensation: Oil phase ([2]; NaCl 0%) [%] | Distribution in [%] between oil phase and water phase after condensation: Water phase ([2]; NaCl 0%) [%] | Distribution in [%] between oil phase and water phase after condensation: Oil phase ([2]; NaCl 27.8 %) [%] | Distribution in [%] between oil phase and water phase after condensation: Water phase ([2]; NaCl 27.8 %) [%] | Distribution in [%] between oil phase and water phase after condensation: Oil phase ([2]; NaCl 41.67%) [%] | Distribution in [%] between oil phase and water phase after condensation: Water phase ([2]; NaCl 41.67%) [%] | Distribution in [%] between oil phase and water phase after condensation: Oil phase ([2]; NaCl 55.56 %) [%] | Distribution in [%] between oil phase and water phase after condensation: Water phase ([2]; NaCl 55.56 %) [%] | Distribution in [%] between oil phase and water phase after condensation: Oil phase ([2]; NaCl 69.44 %) [%] | Distribution in [%] between oil phase and water phase after condensation: Water phase ([2]; NaCl 69.44 %) [%] | Distribution in [%] between oil phase and water phase after condensation: Oil phase ([2]; NaCl 83.33 %) [%] | Distribution in [%] between oil phase and water phase after condensation: Water phase ([2]; NaCl 83.33 %) [%] | SMILES |
| --- | --- | --- | --- | --- | --- | --- | --- | --- | --- | --- | --- | --- | --- |
| 1,3% | 49.4 | 50.6 | 85.1 | 14.9 | 92.9 | 7.1 | 95.4 | 4.6 | 97.7 | 2.3 | 98.7 | 1.3 | CCCC(=O)OCC [ethyl butyrate] |
| 0,0% | 76.2 | 23.8 | 100 | 0 | 100 | 0 | 100 | 0 | 100 | 0 | 100 | 0 | CCCCCCCO [heptanol] |
| 15,4% | 29.5 | 70.5 | 56.8 | 43.2 | 67.2 | 32.8 | 73.8 | 26.2 | 79.8 | 20.2 | 84.6 | 15.4 | CCCCCO [pentanol] |
